Among the test systems are UACC-257 melanoma; CCRF-CEM leukemia; 786-0 renal; HOP-62 NSCLC; SNB-75 CNS; EKVX NSCLC; SK-MEL-2 melanoma; PC-3 prostate; HOP-92 NSCLC; OVCAR-4 ovarian.
Common to all, as to assay: inhibition of tumour cell growth, NCI panel, 48 h

Each structure is given as a SMILES string.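 Values below derive from 48-hour exposures of cells grown in 96-well plates, with endpoints linearly interpolated between the two concentrations bracketing the appropriate inhibition level. Abbreviation: GI50, concentration required for 50% inhibition of growth. TGI marks complete inhibition of growth.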 Where only a bound is given, the exact number is not on record here.

In the case of `Cc1ccc(NC(=O)c2cc3ccccc3c(N=Nc3ccccc3O)c2O)c(C)c1`, the TGI in the assay with UACC-257 melanoma is 20 µM; with CCRF-CEM leukemia, 4.75 µM; in the assay with 786-0 renal, 11.8 µM; with HOP-62 NSCLC it was 12.1 µM; in the assay with SNB-75 CNS, 2.5 µM; in the assay with EKVX NSCLC, 17.3 µM. In addition, the TGI in the assay with SK-MEL-2 melanoma is 14.9 µM; in the assay on PC-3 prostate, 10 µM; in the assay with HOP-92 NSCLC, 12.9 µM; in the assay with OVCAR-4 ovarian, 11.6 µM.
For `C/C(=C\c1ccn(-c2ccc(N)c(F)c2)n1)[C@@H]1C[C@@H]2O[C@]2(C)CCC[C@H](C)[C@H](O)[C@@H](C)C(=O)C(C)(C)[C@@H](O)CC(=O)O1`, the GI50 in the assay with UACC-257 melanoma was 0.0458 µM; with CCRF-CEM leukemia, 0.0114 µM; in the assay with 786-0 renal, 0.0253 µM; with HOP-62 NSCLC it was 0.0245 µM; with SNB-75 CNS it was < 0.005 µM; in the assay on EKVX NSCLC, 0.171 µM. Further, the GI50 in the assay on SK-MEL-2 melanoma is 0.0321 µM; with PC-3 prostate, 0.0139 µM; in the assay on HOP-92 NSCLC, 0.0119 µM; in the assay with OVCAR-4 ovarian it was 0.0964 µM. For the same compound, the TGI was > 50 µM in the assay on UACC-257 melanoma; > 50 µM in the assay on CCRF-CEM leukemia; > 50 µM in the assay with 786-0 renal; > 50 µM in the assay with HOP-62 NSCLC; 0.0725 µM in the assay on SNB-75 CNS; > 50 µM with EKVX NSCLC. The TGI in the assay with SK-MEL-2 melanoma was > 50 µM; in the assay on PC-3 prostate, > 50 µM; in the assay on HOP-92 NSCLC, > 44.4 µM; with OVCAR-4 ovarian, > 50 µM.
Turning to `COc1ccc2c(c1)c(-c1nc(-c3c[nH]c4ncccc34)cs1)cn2CCCCN1CCOCC1`, the GI50 was 2.18 µM with UACC-257 melanoma; 2.12 µM in the assay on CCRF-CEM leukemia; 1.78 µM in the assay on 786-0 renal; 1.91 µM with HOP-62 NSCLC; 1.31 µM with SNB-75 CNS; 2.66 µM in the assay on EKVX NSCLC. Further, the GI50 is 1.97 µM in the assay on SK-MEL-2 melanoma, 1.75 µM with PC-3 prostate, 1.67 µM with HOP-92 NSCLC and 2.21 µM in the assay with OVCAR-4 ovarian. Also, the TGI with UACC-257 melanoma was found to be 3.85 µM; in the assay on CCRF-CEM leukemia, 5.1 µM; with 786-0 renal, 3.3 µM; with HOP-62 NSCLC, 4.08 µM; in the assay on SNB-75 CNS it was 2.85 µM; in the assay on EKVX NSCLC, 9.69 µM. For the same compound, the TGI with SK-MEL-2 melanoma amounted to 3.83 µM; in the assay with PC-3 prostate it was 4.26 µM; in the assay with HOP-92 NSCLC it was 4.17 µM; in the assay on OVCAR-4 ovarian, 5.53 µM.
For `N#Cc1c(N)nc(N2CCOCC2)c(C#N)c1-c1ccc(Cl)cc1`, the GI50 is 40.8 µM with UACC-257 melanoma; 34.5 µM in the assay with CCRF-CEM leukemia; 70.7 µM in the assay on 786-0 renal; > 100 µM in the assay with HOP-62 NSCLC; 14.5 µM with SNB-75 CNS; 22.5 µM in the assay on EKVX NSCLC. Moreover, the GI50 is 18.1 µM in the assay with SK-MEL-2 melanoma, 16.6 µM in the assay with PC-3 prostate, 9 µM in the assay on HOP-92 NSCLC and 29.8 µM in the assay with OVCAR-4 ovarian. In addition, the TGI in the assay with UACC-257 melanoma was > 100 µM; in the assay with CCRF-CEM leukemia it was > 100 µM; with 786-0 renal, > 100 µM; in the assay with HOP-62 NSCLC it was > 100 µM; with SNB-75 CNS, 55.9 µM; in the assay with EKVX NSCLC, > 100 µM. In addition, the TGI in the assay on SK-MEL-2 melanoma was 56.2 µM; with PC-3 prostate, 70.1 µM; with HOP-92 NSCLC, 78.4 µM; with OVCAR-4 ovarian it was > 100 µM.
On to `NC(=O)c1oc([N+](=O)[O-])c(-c2ccccc2)c1-c1ccccc1`, for which the TGI in the assay with UACC-257 melanoma is 34.7 µM; with CCRF-CEM leukemia, 38.9 µM; with 786-0 renal it was 89.7 µM; in the assay with HOP-62 NSCLC, > 100 µM; with SNB-75 CNS, > 100 µM; in the assay with EKVX NSCLC, 48.4 µM. Further, the TGI stood at 36.3 µM in the assay with SK-MEL-2 melanoma, 47.9 µM with PC-3 prostate, 42 µM with HOP-92 NSCLC and 28.5 µM with OVCAR-4 ovarian.
On to `COc1cc(C(O)c2nc3ccccc3s2)cc(OC)c1OC` (stereo not given), for which the GI50 with UACC-257 melanoma was 26 µM; in the assay with CCRF-CEM leukemia, 49.5 µM; in the assay with 786-0 renal it was > 100 µM; in the assay on HOP-62 NSCLC, 43.8 µM; in the assay with SNB-75 CNS, 33.2 µM; in the assay with EKVX NSCLC it was 2.83 µM. For the same compound, the GI50 with SK-MEL-2 melanoma is > 100 µM; with PC-3 prostate, 15.9 µM; in the assay on HOP-92 NSCLC, 1.15 µM; with OVCAR-4 ovarian it was 30.9 µM. Also, the TGI in the assay on UACC-257 melanoma, in the assay on CCRF-CEM leukemia, with 786-0 renal, with HOP-62 NSCLC, in the assay on SNB-75 CNS and with EKVX NSCLC was > 100 µM throughout. In addition, the TGI is > 100 µM with SK-MEL-2 melanoma, > 100 µM with PC-3 prostate, 31.2 µM in the assay on HOP-92 NSCLC and > 100 µM in the assay on OVCAR-4 ovarian.
In the case of `O=C1c2ccc3c4c5ccc(c24)C(=O)N1CCCOCCCCOCCCNCc1ccc(cc1)CNCCCOCCCCOCCCN(C3=O)C5=O`, the GI50 with UACC-257 melanoma was 0.989 µM; in the assay on CCRF-CEM leukemia it was 0.889 µM; in the assay with 786-0 renal, 0.956 µM; with HOP-62 NSCLC, 1.15 µM; with SNB-75 CNS, 0.724 µM; with EKVX NSCLC, 0.824 µM. Also, the GI50 in the assay with SK-MEL-2 melanoma is 0.861 µM; in the assay on PC-3 prostate, 0.904 µM; in the assay with HOP-92 NSCLC, 0.782 µM; in the assay on OVCAR-4 ovarian, 0.567 µM. Further, the TGI worked out at 1.98 µM in the assay on UACC-257 melanoma; 2.84 µM in the assay with CCRF-CEM leukemia; 2.02 µM with 786-0 renal; 3.31 µM in the assay on HOP-62 NSCLC; 1.48 µM in the assay with SNB-75 CNS; 1.63 µM with EKVX NSCLC. The TGI in the assay with SK-MEL-2 melanoma was found to be 1.73 µM; in the assay on PC-3 prostate, 2.76 µM; in the assay on HOP-92 NSCLC, 2.08 µM; in the assay with OVCAR-4 ovarian it was 1.18 µM.
Consider `COc1ccc(C(=O)COc2cccc(/C=C3\CSc4ccccc4C3=O)c2)cc1`, for which the GI50 is 2.49 µM with UACC-257 melanoma; 0.313 µM in the assay with CCRF-CEM leukemia; 1.75 µM in the assay with 786-0 renal; 2.84 µM in the assay on HOP-62 NSCLC; 4.85 µM with SNB-75 CNS; 5.3 µM with EKVX NSCLC. Moreover, the GI50 was 1.86 µM in the assay on SK-MEL-2 melanoma, 2.03 µM with PC-3 prostate, 2.4 µM in the assay on HOP-92 NSCLC and 2.79 µM in the assay on OVCAR-4 ovarian. For the same compound, the TGI was determined as 6.12 µM in the assay on UACC-257 melanoma; 1.09 µM in the assay with CCRF-CEM leukemia; 3.69 µM in the assay on 786-0 renal; 7.6 µM in the assay on HOP-62 NSCLC; 18.4 µM with SNB-75 CNS; 14.8 µM with EKVX NSCLC. In addition, the TGI in the assay on SK-MEL-2 melanoma was found to be 3.49 µM; with PC-3 prostate, 5.03 µM; in the assay with HOP-92 NSCLC, 9.08 µM; in the assay with OVCAR-4 ovarian, 9.87 µM.
